Experimental data from patent US4315022A, “Terminal amino prostaglandin analogues” (Beecham Group Limited, priority 1979, dated 1982).

Tests used:
[1] = tested on: 5-hydroxytryptamine induced bronchoconstriction; experiment: Inhibition of 5-hydroxytryptamine induced bronchoconstriction in anaesthetised, artificially respired guinea pig (Konzett-Rossler preparation); format: in vivo; details: Cavia porcellus, intravenous
Method: 1. The compounds were examined for their ability to inhibit 5-hydroxytryptamine induced bronchoconstriction in the anaesthetised, artificially respired guinea pig (Konzett-Rossler preparation). The compounds were administered intravenously.

[2] = tested on: bronchoconstriction induced by an histamine aerosol; experiment: Protection of conscious guinea pigs against bronchoconstriction induced by histamine aerosol (Herxheimer test); format: in vivo, guinea pig; details: 10 μg/ml, 2 minutes after dosing
Method: 2. The compounds were examined for their ability to protect conscious guinea pigs against bronchoconstriction induced by an histamine aerosol (Herxheimer test). In these experiments the compounds were administered by aerosol.

Row | SMILES | ED50 [1] [mg/kg] | increase in pre-convulsive coughing time [2] [%]
1 | CCCCCCC(C)(O)CCN1C(=O)N(C)C(=O)C1CCCCCCCN (stereo not drawn) [Compound 1, 1-(3'-hydroxy-3'-methyl-n-nonyl)-3-methyl-5-(7"-amino-n-heptyl)-hydantoin] | 0.0023 | 
2 | CCCCCCC(C)(O)CCN1C(=O)N(C)C(=O)C1CCCCCCC(N)=NO (stereo not drawn) [Compound 2, 1-(3'-hydroxy-3'-methyl-n-nonyl)-3-methyl-5-(6"-amidoxyl-n-hexyl)-hydantoin] | 0.032 | 47.5
3 | CCCCCCC(C)(O)CCN1C(=O)N(C)C(=O)C1CCCCCCC(N)=O (stereo not drawn) [Compound 3, 1-(3'-hydroxy-3'-methyl-n-nonyl)-3-methyl-5-(6"-amidoyl-n-hexyl) hydantoin] | 0.108 | 107
4 | CCCCCCC(C)(O)CCN1C(=O)N(C)C(=O)C1CCCCCCCNCCC(=O)OC (stereo not drawn) [Compound 5, 1-(3'-hydroxy-3'-methyl-n-nonyl)-3-methyl-5-(7"-(2'''-methoxycarbonylethyl)amino-n-heptyl) hydantoin] | 0.095 | 
5 | CCCCCCC(C)(O)CCN1C(=O)N(C)C(=O)C1CCCCCCCN(CCC(=O)OC)CCC(=O)OC (stereo not drawn) [Compound 6] | 0.079 | 
6 | CCCCCCC(C)(O)CCN1C(=O)N(C)C(=O)C1CCCCCCCNCC(=O)OC (stereo not drawn) [Compound 9, 1-(3'-hydroxy-3'-methyl-n-nonyl)-3-methyl-5-5-[7'-(N-methoxycarbonylmethyl)amino-n-heptyl]-hydantoin] | 0.066 | 
7 | CCCCCCC(C)(O)CCN1C(=O)N(C)C(=O)C1CCCCCCCN(CC(=O)OC)CC(=O)OC (stereo not drawn) [Compound 10, 1-(3'-hydroxy-3'-methyl-n-nonyl)-3-methyl-5-{7'-[N,N-bis(methoxycarbonylmethyl)amino]-n-heptyl}hydantoin] | 0.0805 | 
